Assay results taken from patent publication US6737383B1, “Herbicidal oxadiazolidines” (priority 1999, dated 2004).

Tests used:
bedstraw = assay: Test B pre/postemergence bedstraw; assay type: in vivo, Galium aparine; conditions: Preemergence
How it was run: (§1)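 Herbicidal effect was estimated by eye on a ten-point control scale after plants spent twelve to sixteen days in a greenhouse following soil or foliar treatment. Foliar sprays targeted plants at one to four leaves; all doses were formulated in a non-phytotoxic solvent with surfactant.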

blackgrass = assay: Test B pre/postemergence blackgrass; assay type: in vivo, Alopecurus myosuroides
How it was run: as §1

surinam grass = assay: Test B pre/postemergence surinam grass; assay type: in vivo, Brachiaria decumbens
How it was run: as §1

cocklebur = assay: Test B pre/postemergence cocklebur; assay type: in vivo, Xanthium strumarium
How it was run: as §1

corn = assay: Test B pre/postemergence corn; assay type: in vivo, Zea mays
How it was run: as §1

crabgrass = assay: Test B pre/postemergence crabgrass; assay type: in vivo, Digitaria sanguinalis
How it was run: as §1

giant foxtail = assay: Test B pre/postemergence giant foxtail; assay type: in vivo, Setaria faberii
How it was run: as §1

morningglory = assay: Test B pre/postemergence morningglory; assay type: in vivo, Ipomoea hederacea
How it was run: as §1

pigweed = assay: Test B pre/postemergence pigweed; assay type: in vivo, Amaranthus retroflexus
How it was run: as §1

rape = assay: Test B pre/postemergence rape; assay type: in vivo, Brassica napus
How it was run: as §1

soybean = assay: Test B pre/postemergence soybean; assay type: in vivo, Glycine max
How it was run: as §1

sugar beet = assay: Test B pre/postemergence sugar beet; assay type: in vivo, Beta vulgaris
How it was run: as §1

velvetleaf = assay: Test B pre/postemergence velvetleaf; assay type: in vivo, Abutilon theophrasti
How it was run: as §1

wheat = assay: Test B pre/postemergence wheat; assay type: in vivo, Triticum aestivum
How it was run: as §1

wild oat = assay: Test B pre/postemergence wild oat; assay type: in vivo, Avena fatua
How it was run: as §1

purple nutsedge = assay: Test B pre/postemergence purple nutsedge; assay type: in vivo, Cyperus rotundus
How it was run: as §1

rice = assay: Test B flood test rice; assay type: in vivo, Oryza sativa
How it was run: (§2)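 Read-out is a visual response score from 0 (no effect) to 10 (complete control), assigned by comparison with untreated controls. Treatment was applied at the 2-leaf stage, and plants stayed in the greenhouse for twelve to sixteen days before scoring.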

smallflower flatsedge = assay: Test B flood test smallflower flatsedge; assay type: in vivo, Cyperus difformis
How it was run: as §2

duck salad = assay: Test B flood test duck salad; assay type: in vivo, Heteranthera limosa
How it was run: as §2

bamyardgrass = assay: Test B flood test barnyardgrass; assay type: in vivo, Echinochloa crus-galli
How it was run: as §2

[1] = Postemergence, Rate 62 g/ha, scale of 0 to 10, 0 is no effect, 10 is complete control
[2] = Postemergence, Rate 125 g/ha, scale of 0 to 10 where 0 is no effect and 10 is complete control
[3] = Postemergence, Rate 250 g/ha, scale of 0 to 10, 0 is no effect, 10 is complete control
[4] = Postemergence, Rate 500 g/ha, scale of 0 to 10 where 0 is no effect and 10 is complete control
[5] = Preemergence, Rate 62 g/ha, scale 0 to 10 (0 no effect, 10 complete control)
[6] = Preemergence, Rate 125 g/ha, scale of 0 to 10 where 0 is no effect and 10 is complete control
[7] = Preemergence, Rate 500 g/ha, scale of 0 to 10 where 0 is no effect and 10 is complete control
[8] = Rate 62 g/ha, flood test species, Pre-emergence, visual evaluation after twelve to sixteen days
[9] = Rate 125 g/ha, under heading Pre-emergence, flood test species, visual evaluation after twelve to sixteen days
[10] = Rate 250 g/ha, Pre-emergence (flood test species), scale 0 to 10, 0 is no effect, 10 is complete control
[11] = Rate 500 g/ha, Pre-emergence section of Table B, 0 to 10 scale (0 no effect, 10 complete control)

SMILES: CC(C)N(C(=O)n1oc(=O)n(CC[N+](=O)[O-])c1=O)c1ccc(F)cc1F [Compound 591]
- Bedstraw plant response rating (bedstraw; Rate 62 g/ha, scale 0 to 10 (0 no effect, 10 complete control)): 0
- Bedstraw plant response rating (bedstraw; Rate 125 g/ha, scale of 0 to 10 where 0 is no effect and 10 is complete control): 0
- Blackgrass plant response rating (blackgrass; [1]): 0
- Plant response rating, Blackgrass (blackgrass; [2]): 0
- Blackgrass plant response rating (blackgrass; [3]): 0
- Plant response rating, Blackgrass (blackgrass; [4]): 0
- Blackgrass plant response rating (blackgrass; [5]): 0
- Blackgrass plant response rating (blackgrass; [6]): 0
- Blackgrass plant response rating (0 to 10 scale) (blackgrass; Preemergence, Rate 250 g/ha): 0
- Blackgrass plant response rating (blackgrass; [7]): 0
- B. signalgrass plant response rating (surinam grass; [1]): 0
- Plant response rating, B. signalgrass (surinam grass; [2]): 0
- B. signalgrass plant response rating (surinam grass; [3]): 0
- Plant response rating, B. signalgrass (surinam grass; [4]): 0
- B. signalgrass plant response rating (surinam grass; [5]): 0
- B. signalgrass plant response rating (surinam grass; [6]): 0
- B. signalgrass plant response rating (0 to 10 scale, 0 is no effect, 10 is complete control) (surinam grass; Preemergence, Rate 250 g/ha): 0
- B. signalgrass plant response rating (surinam grass; [7]): 0
- Cocklebur plant response rating (cocklebur; [1]): 0
- Plant response rating, Cocklebur (cocklebur; [2]): 0
- Cocklebur plant response rating (cocklebur; [3]): 0
- Plant response rating, Cocklebur (cocklebur; [4]): 0
- Cocklebur plant response rating (cocklebur; [5]): 0
- Cocklebur plant response rating (cocklebur; [6]): 0
- Cocklebur plant response rating (0 to 10 scale) (cocklebur; Preemergence, Rate 250 g/ha): 0
- Plant response rating, Cocklebur (cocklebur; [7]): 0
- Corn plant response rating (corn; [1]): 0
- Plant response rating, Corn (corn; [2]): 0
- Corn plant response rating (corn; [3]): 0
- Plant response rating, Corn (corn; [4]): 0
- Corn plant response rating (corn; [5]): 0
- Corn plant response rating (corn; [6]): 0
- Corn plant response rating (0 to 10 scale) (corn; Preemergence, Rate 250 g/ha): 0
- Plant response rating, Corn (corn; [7]): 0
- Crabgrass plant response rating (crabgrass; [1]): 0
- Plant response rating, Crabgrass (crabgrass; [2]): 0
- Crabgrass plant response rating (crabgrass; [3]): 0
- Plant response rating, Crabgrass (crabgrass; [4]): 0
- Crabgrass plant response rating (crabgrass; [5]): 0
- Crabgrass plant response rating (crabgrass; [6]): 0
- Plant response rating, Crabgrass (crabgrass; [7]): 0
- Giant foxtail plant response rating (giant foxtail; [1]): 0
- Plant response rating, Giant foxtail (giant foxtail; [2]): 0
- Giant foxtail plant response rating (giant foxtail; [3]): 0
- Plant response rating, Giant foxtail (giant foxtail; [4]): 0
- Giant foxtail plant response rating (giant foxtail; [5]): 0
- Giant foxtail plant response rating (giant foxtail; [6]): 0
- Plant response rating, Giant foxtail (giant foxtail; [7]): 0
- Morningglory plant response rating (morningglory; [1]): 0
- Plant response rating, Morningglory (morningglory; [2]): 0
- Morningglory plant response rating (morningglory; [3]): 2
- Plant response rating, Morningglory (morningglory; [4]): 3
- Morningglory plant response rating (morningglory; [5]): 0
- Morningglory plant response rating (morningglory; [6]): 0
- Plant response rating, Morningglory (morningglory; [7]): 0
- Plant response rating, Redroot pigweed (pigweed; [2]): 0
- Redroot pigweed plant response rating (pigweed; [3]): 0
- Plant response rating, Redroot pigweed (pigweed; [4]): 0
- Redroot pigweed plant response rating (pigweed; [5]): 0
- Redroot pigweed plant response rating (pigweed; [6]): 0
- Plant response rating, Redroot pigweed (pigweed; [7]): 0
- Rape plant response rating (rape; [1]): 0
- Plant response rating, Rape (rape; [2]): 0
- Rape plant response rating (rape; [3]): 0
- Plant response rating, Rape (rape; [4]): 0
- Rape plant response rating (rape; [5]): 0
- Rape plant response rating (rape; [6]): 0
- Plant response rating, Rape (rape; [7]): 0
- Plant response rating, Soybean (soybean; [2]): 1
- Soybean plant response rating (soybean; [3]): 2
- Plant response rating, Soybean (soybean; [4]): 2
- Soybean plant response rating (soybean; [5]): 0
- Soybean plant response rating (soybean; [6]): 0
- Plant response rating, Soybean (soybean; [7]): 0
- Plant response rating, Sugarbeets (sugar beet; [2]): 0
- Sugarbeets plant response rating (sugar beet; [3]): 0
- Plant response rating, Sugarbeets (sugar beet; [4]): 0
- Sugarbeets plant response rating (sugar beet; [5]): 0
- Sugarbeets plant response rating (sugar beet; [6]): 0
- Plant response rating, Sugarbeets (sugar beet; [7]): 0
- Plant response rating, Velvetleaf (velvetleaf; [2]): 0
- Velvetleaf plant response rating (velvetleaf; [3]): 0
- Plant response rating, Velvetleaf (velvetleaf; [4]): 0
- Velvetleaf plant response rating (velvetleaf; [5]): 0
- Velvetleaf plant response rating (velvetleaf; [6]): 0
- Plant response rating, Velvetleaf (velvetleaf; [7]): 0
- Plant response rating, Wheat (wheat; [2]): 0
- Wheat plant response rating (wheat; [3]): 0
- Plant response rating, Wheat (wheat; [4]): 0
- Wheat plant response rating (wheat; [5]): 0
- Wheat plant response rating (wheat; [6]): 0
- Plant response rating, Wheat (wheat; [7]): 0
- Plant response rating, Wild oats (wild oat; [2]): 0
- Wild oats plant response rating (wild oat; [3]): 0
- Plant response rating, Wild oats (wild oat; [4]): 0
- Wild oats plant response rating (wild oat; [5]): 0
- Wild oats plant response rating (wild oat; [6]): 0
- Plant response rating, Wild oats (wild oat; [7]): 0
- Nutsedge plant response rating (purple nutsedge; [1]): 0
- Plant response rating, Nutsedge (purple nutsedge; [2]): 0
- Nutsedge plant response rating (purple nutsedge; [3]): 0
- Plant response rating, Nutsedge (purple nutsedge; [4]): 0
- Nutsedge plant response rating (purple nutsedge; [5]): 0
- Nutsedge plant response rating (purple nutsedge; [6]): 0
- Plant response rating, Nutsedge (purple nutsedge; [7]): 0
- Plant response rating, Rice (0 to 10 scale, 0 is no effect, 10 is complete control) (rice; [8]): 0
- Rice plant response rating (0 to 10 scale, 0 is no effect, 10 is complete control) (rice; [9]): 0
- Rice plant response rating (rice; [10]): 0
- Rice plant response rating (rice; [11]): 0
- Plant response rating, S. Flatsedge (0 to 10 scale, 0 is no effect, 10 is complete control) (smallflower flatsedge; [8]): 0
- S. Flatsedge plant response rating (0 to 10 scale, 0 is no effect, 10 is complete control) (smallflower flatsedge; [9]): 0
- S. Flatsedge plant response rating (smallflower flatsedge; [10]): 0
- S. Flatsedge plant response rating (smallflower flatsedge; [11]): 0
- Plant response rating, Ducksalad (0 to 10 scale, 0 is no effect, 10 is complete control) (duck salad; [8]): 0
- Ducksalad plant response rating (0 to 10 scale, 0 is no effect, 10 is complete control) (duck salad; [9]): 0
- Ducksalad plant response rating (duck salad; [10]): 0
- Ducksalad plant response rating (duck salad; [11]): 0
- Plant response rating, Barnyardgrass (0 to 10 scale, 0 is no effect, 10 is complete control) (bamyardgrass; [8]): 0
- Barnyardgrass plant response rating (0 to 10 scale, 0 is no effect, 10 is complete control) (bamyardgrass; [9]): 0
- Barnyardgrass plant response rating (bamyardgrass; [10]): 0
- Barnyardgrass plant response rating (bamyardgrass; [11]): 0
